Experimental data: ChEMBL document CHEMBL3885861, “Open TG-GATES”

Species: Rattus norvegicus
Experiment: Open TG-GATES - Regimen: Single
Format: toxicity, organism-based, Sprague-Dawley
Set-up: regimen Single, gender Male, age 6 weeks
Settings: in vivo, po, 300 mg/kg, route gavage, dose level Middle; for APTT / Bas / Eos / Fbg / Hb / Ht / Lym / MCH / MCHC / MCV / Mono / Neu / PT / Plat / RBC / Ret / WBC: tissue Blood; for KIDNEY_L / KIDNEY_R / KIDNEY_TOTAL: tissue Kidney; for LIVER: tissue Liver; for A/G / ALP / ALT / AST / BUN / CRE / Ca / Cl / DBIL / GLC / IP / LDH / Na / PL / RALB / TBIL / TC / TG / TP / gamma-GTP: tissue Plasma

NC(N)=Nc1nc(CSCCC(N)=NS(N)(=O)=O)cs1 [FAMOTIDINE]
TERMINAL_BW (3 h): 215.2 g | APTT (3 h): 21.3 s | Bas (3 h): 0% | Eos (3 h): 1% | Fbg (3 h): 213.2 mg/dL | Hb (3 h): 13.4 g/dL | Ht (3 h): 37.9% | Lym (3 h): 76.2% | MCH (3 h): 22.4 pg | MCHC (3 h): 35.3% | MCV (3 h): 63.4 fL | Mono (3 h): 2.8% | Neu (3 h): 17.8% | PT (3 h): 12.6 s | Plat (3 h): 116.7 x10_4/uL | RBC (3 h): 598 x10_4/ul | Ret (3 h): 7.6% | WBC (3 h): 82 x10_2/uL | KIDNEY_L (3 h): 1 g | KIDNEY_R (3 h): 1 g | KIDNEY_TOTAL (3 h): 1.9 g | LIVER (3 h): 10.1 g | A/G (3 h): 1.6 | ALP (3 h): 814.6 IU/L | ALT (3 h): 34.2 IU/L | AST (3 h): 66.4 IU/L | BUN (3 h): 9.6 mg/dL | CRE (3 h): 0.4 mg/dL | Ca (3 h): 10.6 mg/dL | Cl (3 h): 104.2 meq/L | DBIL (3 h): 0.07 mg/dL | GLC (3 h): 197.8 mg/dL | IP (3 h): 9 mg/dL | LDH (3 h): 230 IU/L | Na (3 h): 140.8 meq/L | PL (3 h): 146 mg/dL | RALB (3 h): 3.4 g/dL | TBIL (3 h): 0.1 mg/dL | TC (3 h): 77.2 mg/dL | TG (3 h): 69.4 mg/dL | TP (3 h): 5.5 g/dL | gamma-GTP (3 h): 1.2 IU/L | TERMINAL_BW (6 h): 211.7 g | APTT (6 h): 18.9 s | Bas (6 h): 0% | Eos (6 h): 1% | Fbg (6 h): 204.6 mg/dL | Hb (6 h): 13.5 g/dL | Ht (6 h): 37.8% | Lym (6 h): 75% | MCH (6 h): 22.3 pg | MCHC (6 h): 35.6% | MCV (6 h): 62.7 fL | Mono (6 h): 2.4% | Neu (6 h): 18.4% | PT (6 h): 12.8 s | Plat (6 h): 109.6 x10_4/uL | RBC (6 h): 604.4 x10_4/ul | Ret (6 h): 7.4% | WBC (6 h): 97.9 x10_2/uL | KIDNEY_L (6 h): 1 g | KIDNEY_R (6 h): 0.9 g | KIDNEY_TOTAL (6 h): 1.9 g | LIVER (6 h): 9 g | A/G (6 h): 1.6 | ALP (6 h): 896.8 IU/L | ALT (6 h): 32.8 IU/L | AST (6 h): 66.8 IU/L | BUN (6 h): 8.4 mg/dL | CRE (6 h): 0.4 mg/dL | Ca (6 h): 10.4 mg/dL | Cl (6 h): 103.8 meq/L | DBIL (6 h): 0.07 mg/dL | GLC (6 h): 195 mg/dL | IP (6 h): 9 mg/dL | LDH (6 h): 177.2 IU/L | Na (6 h): 140.8 meq/L | PL (6 h): 131.2 mg/dL | RALB (6 h): 3.2 g/dL | TBIL (6 h): 0.1 mg/dL | TC (6 h): 73.2 mg/dL | TG (6 h): 46.2 mg/dL | TP (6 h): 5.2 g/dL | gamma-GTP (6 h): 2 IU/L | TERMINAL_BW (9 h): 209.6 g | APTT (9 h): 18.9 s | Bas (9 h): 0% | Eos (9 h): 0.8% | Fbg (9 h): 225.4 mg/dL | Hb (9 h): 13.4 g/dL | Ht (9 h): 37.4% | Lym (9 h): 76.8% | MCH (9 h): 22.3 pg | MCHC (9 h): 35.7% | MCV (9 h): 62.3 fL | Mono (9 h): 2.4% | Neu (9 h): 19.2% | PT (9 h): 12.1 s | Plat (9 h): 117.6 x10_4/uL | RBC (9 h): 601.6 x10_4/ul | Ret (9 h): 7.2% | WBC (9 h): 77.6 x10_2/uL | KIDNEY_L (9 h): 0.9 g | KIDNEY_R (9 h): 1 g | KIDNEY_TOTAL (9 h): 1.9 g | LIVER (9 h): 8.7 g | A/G (9 h): 1.6 | ALP (9 h): 898 IU/L | ALT (9 h): 26.6 IU/L | AST (9 h): 59 IU/L | BUN (9 h): 10 mg/dL | CRE (9 h): 0.4 mg/dL | Ca (9 h): 10.3 mg/dL | Cl (9 h): 103.6 meq/L | DBIL (9 h): 0.064 mg/dL | GLC (9 h): 195.2 mg/dL | IP (9 h): 8.8 mg/dL | LDH (9 h): 125 IU/L | Na (9 h): 140.2 meq/L | PL (9 h): 130 mg/dL | RALB (9 h): 3.3 g/dL | TBIL (9 h): 0.1 mg/dL | TC (9 h): 67.8 mg/dL | TG (9 h): 47.6 mg/dL | TP (9 h): 5.4 g/dL | gamma-GTP (9 h): 0.6 IU/L | TERMINAL_BW (24 h): 227 g | APTT (24 h): 20.8 s | Bas (24 h): 0% | Eos (24 h): 1% | Fbg (24 h): 225.8 mg/dL | Hb (24 h): 13.4 g/dL | Ht (24 h): 37.6% | Lym (24 h): 78.2% | MCH (24 h): 22.4 pg | MCHC (24 h): 35.6% | MCV (24 h): 63.1 fL | Mono (24 h): 3.8% | Neu (24 h): 15.6% | PT (24 h): 12.1 s | Plat (24 h): 114.2 x10_4/uL | RBC (24 h): 596.2 x10_4/ul | Ret (24 h): 6.6% | WBC (24 h): 78.3 x10_2/uL | KIDNEY_L (24 h): 1 g | KIDNEY_R (24 h): 1 g | KIDNEY_TOTAL (24 h): 2 g | LIVER (24 h): 11 g | A/G (24 h): 1.5 | ALP (24 h): 1146.8 IU/L | ALT (24 h): 33.2 IU/L | AST (24 h): 62.8 IU/L | BUN (24 h): 13.2 mg/dL | CRE (24 h): 0.4 mg/dL | Ca (24 h): 10.5 mg/dL | Cl (24 h): 103.6 meq/L | DBIL (24 h): 0.074 mg/dL | GLC (24 h): 194.2 mg/dL | IP (24 h): 8 mg/dL | LDH (24 h): 176.6 IU/L | Na (24 h): 140.6 meq/L | PL (24 h): 153 mg/dL | RALB (24 h): 3.3 g/dL | TBIL (24 h): 0.1 mg/dL | TC (24 h): 82.8 mg/dL | TG (24 h): 86.8 mg/dL | TP (24 h): 5.6 g/dL | gamma-GTP (24 h): 0.8 IU/L
